Consider 18 molecules from patent US20250136594A1 (Tango Therapeutics, Inc., priority 2022, published 2025).

Read-outs that look alike come from different tables or passages of the source.

Test [1] deals with SDMA in HAP1 MTAP-intact cell line (PRMT5 inhibition). Nature of the test: SDMA in-cell western assay, HAP1 MTAP-intact cell line.
Test [2] has as its system HAP1 MTAP-deleted cell line. Nature of the test: Viability assay, HAP1 MTAP-deleted cell line. Type of test: cell-based. Conditions: viability assay, HAP1 MTAP-deleted cell line, read-out: Hap1 MTAP deleted viability IC50.
Test [3] has as its system SDMA in HAP1 MTAP-deleted (MTAP-null) cell line (PRMT5 inhibition). Nature of the test: SDMA in-cell western assay, HAP1 MTAP-deleted cell line. Conditions: for Hap1 MTAP intact/deleted ratio: ratio of SDMA IC50 in HAP1 MTAP-intact to HAP1 MTAP-deleted cell line.
The mark [4] stands for this setting: Homo sapiens, HAP1, read-out: Hap1 MTAP intact IC50.
The mark [5] stands for this setting: Homo sapiens, HAP1, read-out: Hap1 MTAP deleted IC50.
Where [6] appears, read: Homo sapiens, HAP1, read-out: Hap1 MTAP deleted IC90.

For the molecule `Nc1ncc(NC(=O)C(=O)N(Cc2ccccc2)Cc2ncccc2Cl)c2[nH]ncc12` [Compound 120, N-(4-amino-2H-pyrazolo[4,3-c]pyridin-7-yl)-N′-benzyl-N′-[(3-chloro-2-pyridyl)methyl]oxamide], the results for the half-inhibitory concentration (IC50) in test [1] (setting [4]), in test [2] (Homo sapiens) and in test [3] (setting [5]) were 5 to 50 nM, < 100 nM and < 5 nM, respectively. In test [3] (setting [6]), the IC90 (commonly the concentration needed for an effect of 90%) was < 75 nM. The “Hap1 MTAP intact/deleted ratio” value in test [3] is reported as “B (IC50 ratio greater than or equal to 15 fold but lower than 30 fold)”.
For the molecule `CCN(Cc1ccc(S(F)(F)(F)(F)F)cc1C)C(=O)C(=O)Nc1cnc(N)c2cn[nH]c12` [Compound 194, N-(4-Amino-1H-pyrazolo[4,3-c]pyridin-7-yl)-N′-ethyl-N′-[[2-methyl-4-(pentafluoro-sulfanyl)phenyl]methyl]oxamide], the IC50 (in general, the concentration needed to halve the response being measured) in test [1] (setting [4]) is 5 to 50 nM; in test [2] (Homo sapiens), < 100 nM; in test [3] (setting [5]) it was < 5 nM. Besides, the IC90 in test [3] (setting [6]) was < 75 nM. In test [3], the “Hap1 MTAP intact/deleted ratio” value is “B (IC50 ratio greater than or equal to 15 fold but lower than 30 fold)”.
For the molecule `Nc1ncc(NC(=O)C(=O)N(Cc2ccccn2)Cc2cccc3c2CCCO3)c2[nH]ncc12` [Compound 92, N-(4-amino-2H-pyrazolo[4,3-c]pyridin-7-yl)-N′-(chroman-5-ylmethyl)-N′-(2-pyridylmethyl)oxamide], the IC50 is < 5 nM in test [1] (setting [4]), < 100 nM in test [2] (Homo sapiens) and < 5 nM in test [3] (setting [5]). The IC90 in test [3] (setting [6]) is < 75 nM. The “Hap1 MTAP intact/deleted ratio” value in test [3] was “C (IC50 ratio of less than 15 fold)”.
`C[C@H](c1ccc(C(F)(F)F)cc1F)N(C)C(=O)C(=O)Nc1cnc(N)c2c1cnn2C` [Compound 84, N-(7-Amino-1-methyl-pyrazolo[3,4-c]pyridin-4-yl)-N′-methyl-N′—[(1R)-1-[2-fluoro-4-(trifluoromethyl)phenyl]ethyl]oxamide]: the IC50 is 5 to 50 nM in test [1] (setting [4]), < 100 nM in test [2] (Homo sapiens) and < 5 nM in test [3] (setting [5]). Besides, the IC90 in test [3] (setting [6]) was < 75 nM. Further, the “Hap1 MTAP intact/deleted ratio” value in test [3] is recorded as “A (IC50 ratio greater than or equal to 30 fold)”.
As for `Cc1ccccc1CN(CC1CC1)C(=O)C(=O)Nc1cnc(N)c2cn[nH]c12` [Compound 155, N-(4-amino-1H-pyrazolo[4,3-c]pyridin-7-yl)-N′-(cyclopropylmethyl)-N′-(o-tolylmethyl)oxamide], the IC50 in test [1] (setting [4]) was > 50 nM; in test [2] (Homo sapiens) it was < 100 nM; in test [3] (setting [5]), < 5 nM. In addition, the IC90 in test [3] (setting [6]) was < 75 nM. The “Hap1 MTAP intact/deleted ratio” value in test [3] is reported as “A (IC50 ratio greater than or equal to 30 fold)”.
Taken in the same sequence, the figures for `CC(C)N(Cc1ccccc1C(F)(F)F)C(=O)C(=O)Nc1cnc(N)c2cn[nH]c12` [Compound 73, N-(4-amino-1H-pyrazolo[4,3-c]pyridin-7-yl)-N′-isopropyl-N′-[[2-(trifluoromethyl)phenyl]methyl]oxamide] were 5 to 50 nM, < 100 nM, < 5 nM, < 75 nM and “B (IC50 ratio greater than or equal to 15 fold but lower than 30 fold)”.
Taken in the same sequence, the figures for `Cc1cccnc1CN(Cc1ccccn1)C(=O)C(=O)Nc1cnc(N)c2cn[nH]c12` [Compound 180, N-(4-amino-2H-pyrazolo[4,3-c]pyridin-7-yl)-N′-[(3-methyl-2-pyridyl)methyl]-N′-(2-pyridylmethyl)oxamide] were 5 to 50 nM, < 100 nM, < 5 nM, < 75 nM and “C (IC50 ratio of less than 15 fold)”.
Consider `CCN(C(=O)C(=O)Nc1cnc(N)c2cn[nH]c12)[C@H](C)c1ccc(C(F)(F)F)cc1C` [Compound 70, (R)—N^1-(4-amino-1H-pyrazolo[4,3-c]pyridin-7-yl)-N^2-ethyl-N^2-(1-(2-methyl-4-(trifluoromethyl)phenyl)ethyl)oxalamide], for which the IC50 is 5 to 50 nM in test [1] (setting [4]), < 100 nM in test [2] (Homo sapiens) and < 5 nM in test [3] (setting [5]). In addition, in test [3] (setting [6]), the IC90 is < 75 nM. Besides, the “Hap1 MTAP intact/deleted ratio” value in test [3] was “C (IC50 ratio of less than 15 fold)”.
Take `CC1CCC(N(Cc2ccc(C(F)(F)F)cn2)C(=O)C(=O)Nc2cncc3cn[nH]c23)c2ccccc21` (stereo not drawn) [Compound 17, N′-(4-methyltetralin-1-yl)-N-(1H-pyrazolo[4,3-c]pyridin-7-yl)-N′-[[5-(trifluoromethyl)-2-pyridyl]methyl]oxamide]: the IC50 in test [1] (setting [4]) was > 50 nM; in test [2] (Homo sapiens), < 100 nM; in test [3] (setting [5]) it was 5 to 50 nM. The IC90 in test [3] (setting [6]) was > 125 nM. Also, the “Hap1 MTAP intact/deleted ratio” value in test [3] was “C (IC50 ratio of less than 15 fold)”.
Take `CNc1cccc(CN(Cc2ccccc2)C(=O)C(=O)Nc2cnc(N)c3cn[nH]c23)c1` [Compound 93, N-(4-amino-1H-pyrazolo[4,3-c]pyridin-7-yl)-N′-benzyl-N′-[[3-(methylamino)phenyl]methyl]oxamide]: the IC50 was 5 to 50 nM in test [1] (setting [4]), < 100 nM in test [2] (Homo sapiens) and < 5 nM in test [3] (setting [5]). Also, in test [3] (setting [6]), the 90% effect concentration (IC90) is < 75 nM. Also, the “Hap1 MTAP intact/deleted ratio” value in test [3] was “B (IC50 ratio greater than or equal to 15 fold but lower than 30 fold)”.
Turning to `COc1ncc(NC(=O)C(=O)N(Cc2ccc(C(F)(F)F)cn2)C2CCC(C)c3ccccc32)cc1C(N)=O` (stereo not drawn) [Compound 33, N-(5-carbamoyl-6-methoxy-3-pyridyl)-N′-(4-methyltetralin-1-yl)-N′-[[5-(trifluoromethyl)-2-pyridyl]methyl]oxamide], the values for the IC50 in test [1] (setting [4]), in test [2] (Homo sapiens) and in test [3] (setting [5]) were > 50 nM, < 100 nM and 5 to 50 nM, respectively. In addition, the concentration for an effect of 90% (IC90) in test [3] (setting [6]) is > 125 nM. For the same molecule, the “Hap1 MTAP intact/deleted ratio” value in test [3] is recorded as “C (IC50 ratio of less than 15 fold)”.
Regarding `Cc1cccnc1CN(C(=O)C(=O)Nc1cnc(N)c2cn[nH]c12)C(C)C(C)C` (single isomer, unassigned) [Compound 171], the half-maximal inhibitory concentration (IC50) in test [1] (read-out: Hap1 MTAP intact IC50, SDMA in-cell western, HAP1 MTAP-intact cell line) was 5 to 50 nM; in test [2], < 100 nM; in test [3] (read-out: Hap1 MTAP deleted IC50, SDMA in-cell western, HAP1 MTAP-deleted cell line) it was < 5 nM. Moreover, the “Hap1 MTAP intact/deleted ratio” value in test [3] is listed as “C (IC50 ratio of less than 15 fold)”. Moreover, the IC90 in test [3] (read-out: Hap1 MTAP deleted IC90, SDMA in-cell western, HAP1 MTAP-deleted cell line) was < 75 nM.
For `C[C@H](c1ccc(C(F)(F)C(F)(F)F)cc1)N(C)C(=O)C(=O)Nc1cnc(N)c2cn[nH]c12` [Compound 121, N-(4-amino-1H-pyrazolo[4,3-c]pyridin-7-yl)-N′-methyl-N′—[(1R)-1-[4-(1,1,2,2,2-pentafluoroethyl)phenyl]ethyl]oxamide], the half-inhibitory concentration (IC50) is 5 to 50 nM in test [1] (setting [4]), < 100 nM in test [2] (Homo sapiens) and < 5 nM in test [3] (setting [5]). Further, in test [3] (setting [6]), the 90% effect concentration (IC90) is < 75 nM. For the same molecule, the “Hap1 MTAP intact/deleted ratio” value in test [3] is “B (IC50 ratio greater than or equal to 15 fold but lower than 30 fold)”.
As to `Cc1cc(F)ccc1CN(CC(C)C)C(=O)C(=O)Nc1cnc(N)c2cn[nH]c12` [Compound 71, N-(4-amino-1H-pyrazolo[4,3-c]pyridin-7-yl)-N′-[(4-fluoro-2-methyl-phenyl)methyl]-N′-isobutyl-oxamide], the IC50 in test [1] (setting [4]) is > 50 nM; in test [2] (Homo sapiens), < 100 nM; in test [3] (setting [5]), < 5 nM. The 90% effect concentration (IC90) in test [3] (setting [6]) was < 75 nM. Further, the “Hap1 MTAP intact/deleted ratio” value in test [3] is “A (IC50 ratio greater than or equal to 30 fold)”.
As to `COC[C@@H](C1CC1)N(Cc1ccc(C(F)(F)F)cn1)C(=O)C(=O)Nc1cnc(N)c2cn[nH]c12` [Compound 39, (R)-N1-(4-amino-1H-pyrazolo[4,3-c]pyridin-7-yl)-N^2-(1-cyclopropyl-2-methoxyethyl)-N^2-((5-(trifluoromethyl)pyridin-2-yl)methyl)oxalamide], the IC50 was 5 to 50 nM in test [1] (setting [4]), < 100 nM in test [2] (Homo sapiens) and < 5 nM in test [3] (setting [5]). Moreover, the concentration for an effect of 90% (IC90) in test [3] (setting [6]) was < 75 nM. Also, the “Hap1 MTAP intact/deleted ratio” value in test [3] is reported as “B (IC50 ratio greater than or equal to 15 fold but lower than 30 fold)”.
As for `Nc1ncc(NC(=O)C(=O)N(Cc2ccccc2)C2CCOc3ccccc32)c2[nH]ncc12` (stereo not drawn) [Compound 97, N-(4-Amino-1H-pyrazolo[4,3-c]pyridin-7-yl)-N′-benzyl-N′-chroman-4-yl-oxamide], the 50% inhibitory concentration (IC50) in test [1] (setting [4]) is 5 to 50 nM; in test [2] (Homo sapiens) it was < 100 nM; in test [3] (setting [5]), < 5 nM. The concentration for an effect of 90% (IC90) in test [3] (setting [6]) was < 75 nM. Moreover, in test [3], the “Hap1 MTAP intact/deleted ratio” value is listed as “B (IC50 ratio greater than or equal to 15 fold but lower than 30 fold)”.
In the case of `Cc1cccc(CN(Cc2ccccn2)C(=O)C(=O)Nc2cnc(N)c3cn[nH]c23)c1` [Compound 52, N-(4-amino-1H-pyrazolo[4,3-c]pyridin-7-yl)-N′-(m-tolylmethyl)-N′-(2-pyridylmethyl)oxamide], the IC50 is 5 to 50 nM in test [1] (setting [4]), < 100 nM in test [2] (Homo sapiens) and < 5 nM in test [3] (setting [5]). Also, in test [3] (setting [6]), the IC90 was < 75 nM. Also, in test [3], the “Hap1 MTAP intact/deleted ratio” value is recorded as “B (IC50 ratio greater than or equal to 15 fold but lower than 30 fold)”.
`Cc1cc(NC(=O)C(=O)N(Cc2ccc(C(F)(F)F)cn2)[C@@H](C)c2ncccn2)cnc1N` [Compound 49, N-(6-amino-5-methyl-3-pyridyl)-N′—[(1S)-1-pyrimidin-2-ylethyl]-N′-[[5-(trifluoromethyl)-2-pyridyl]methyl]oxamide]: the values for the 50% inhibitory concentration (IC50) in test [1] (setting [4]), in test [2] (Homo sapiens) and in test [3] (setting [5]) were 5 to 50 nM, 100 to 1000 nM and 5 to 50 nM, respectively. In addition, in test [3] (setting [6]), the concentration for an effect of 90% (IC90) was > 125 nM. In test [3], the “Hap1 MTAP intact/deleted ratio” value was “C (IC50 ratio of less than 15 fold)”.
